Experimental data from patent US7179597B2, “Genetic diagnosis for QT prolongation related adverse drug reactions” (Georgetown University, priority 2000, dated 2007).
Entries after “also recorded” stand apart in the source; their conditions may differ. Where two headings read alike, the source gives them in different places.

Tests used:
[1] = test system: cultured neonatal rat cardiomyocytes; assay: Spontaneous beating rate of cultured neonatal rat cardiomyocytes; format: cell-based; parameters: Reduction in beating rate / Maximum inhibition of beating activity, drug alone: dose or concentration left out as unconfirmed
Excerpt: Delayed rectifier potassium channels are important components of cardiac repolarization. There are two major delayed rectifier potassium currents, IKr (rapid component) and IKs (slow component). Drugs that block these currents, particularly IKr, slow cardiac repolarization and increase the risk of developing potentially fatal cardiac arrhythmias such as Torsades de Pointes. Moreover, mutations in the genes encoding for delayed rectifier potassium channel proteins have been linked to long QT syndrome, a condition seen in patients at high risk for developing Torsades de Pointes cardiac arrhythmias and sudden death. […] Recently, however, a new compound, chromanol 293B, has been reported to be a relatively selective blocker of IKs (Busch et al., Pflug. Arch. 432: 1094–6 (1996)). In the present report, we have tested this compound using spontaneously beating cultures of neonatal rat cardiomyocytes.
In addition to the different electrophysiological properties of IKr versus IKs that have been described by others, these currents can be distinguished pharmacologically (Sanguinetti et al., J. Gen. Physiol. 96: 195–215 (1990)). […] To determine if pharmacological blockade of delayed rectifier potassium currents influences the spontaneous beating rate of cultured neonatal rat cardiomyocytes, a dose-response curve was generated for chromanol 293B.

[2] = test system: IKs; details: cited from earlier work
[3] = cited from earlier work
[4] = target: CYP2C9 (Homo sapiens, UniProt P11712); details: Table 3; cited from earlier work
[5] = target: CYP2D6 (Homo sapiens, UniProt P10635); details: Table 3, cited from earlier work
[6] = cited from earlier work; remark: listed apart in the source
[7] = target: T1, CYP1A2 (Homo sapiens, UniProt P05177); details: Table 3; cited from earlier work
T1 sequence (P05177 1-516): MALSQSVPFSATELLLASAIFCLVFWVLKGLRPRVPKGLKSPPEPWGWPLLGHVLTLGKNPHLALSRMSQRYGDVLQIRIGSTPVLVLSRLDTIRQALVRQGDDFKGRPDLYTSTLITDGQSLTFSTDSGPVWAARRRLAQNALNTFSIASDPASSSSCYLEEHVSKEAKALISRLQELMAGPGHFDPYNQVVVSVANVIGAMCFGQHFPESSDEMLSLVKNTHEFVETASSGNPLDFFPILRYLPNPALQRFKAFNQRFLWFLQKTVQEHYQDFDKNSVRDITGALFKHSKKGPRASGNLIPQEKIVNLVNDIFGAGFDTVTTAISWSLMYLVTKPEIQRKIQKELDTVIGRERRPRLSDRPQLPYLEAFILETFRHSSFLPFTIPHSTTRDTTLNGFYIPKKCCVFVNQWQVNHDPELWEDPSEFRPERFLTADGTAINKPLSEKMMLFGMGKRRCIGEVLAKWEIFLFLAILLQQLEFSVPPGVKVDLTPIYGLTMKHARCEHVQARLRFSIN

[8] = target: CYP2C19 (Homo sapiens, UniProt P33261); details: Table 3; cited from earlier work
[9] = test system: Ito; assay: Whole-cell voltage clamp of transient outward current Ito in rabbit ventricular myocytes; format: cell-based; details: 5 μmol/L, 5 minutes superfusion
[10] = test system: IK1; assay: Whole-cell voltage clamp of inward rectifier IK1 in rabbit ventricular myocytes; format: cell-based; details: 5 μmol/L, 5 minutes
[11] = test system: CYP3A; details: Table 3; cited from earlier work
[12] = test system: healthy volunteers; assay: ECG QTc assessment after ibutilide infusion in healthy volunteers; format: in vivo, human
Method: ECG analysis is one method of assessing arrhythmias, such as prolonged QT intervals. Ibutilide or any other pharmaceutical agent to be studied, can be assessed using an ECG. […] All ECGs were 12 lead and were recorded on a computer disc and on paper at a speed of 50 mm/sec, with the subject in a stationary, resting, supine position.

[13] = target: P-gp (Homo sapiens, UniProt P08183); details: Atadja et al. 1998; cited from earlier work
[14] = target: L-type ICa (Oryctolagus cuniculus, UniProt P15381); details: 10 μmol/L
[15] = test system: rabbit ventricular myocytes; details: 3.3 μmol/L, about 4–5 min; before drug 341±49 ms; n=16, p>0.05
[16] = target: T2, IKr (Oryctolagus cuniculus, UniProt Q8WNY2); details: superfusion with 1–2.5 μmol/L (Liu et al. 1998); cited from earlier work
T2 sequence (Q8WNY2 1-1161): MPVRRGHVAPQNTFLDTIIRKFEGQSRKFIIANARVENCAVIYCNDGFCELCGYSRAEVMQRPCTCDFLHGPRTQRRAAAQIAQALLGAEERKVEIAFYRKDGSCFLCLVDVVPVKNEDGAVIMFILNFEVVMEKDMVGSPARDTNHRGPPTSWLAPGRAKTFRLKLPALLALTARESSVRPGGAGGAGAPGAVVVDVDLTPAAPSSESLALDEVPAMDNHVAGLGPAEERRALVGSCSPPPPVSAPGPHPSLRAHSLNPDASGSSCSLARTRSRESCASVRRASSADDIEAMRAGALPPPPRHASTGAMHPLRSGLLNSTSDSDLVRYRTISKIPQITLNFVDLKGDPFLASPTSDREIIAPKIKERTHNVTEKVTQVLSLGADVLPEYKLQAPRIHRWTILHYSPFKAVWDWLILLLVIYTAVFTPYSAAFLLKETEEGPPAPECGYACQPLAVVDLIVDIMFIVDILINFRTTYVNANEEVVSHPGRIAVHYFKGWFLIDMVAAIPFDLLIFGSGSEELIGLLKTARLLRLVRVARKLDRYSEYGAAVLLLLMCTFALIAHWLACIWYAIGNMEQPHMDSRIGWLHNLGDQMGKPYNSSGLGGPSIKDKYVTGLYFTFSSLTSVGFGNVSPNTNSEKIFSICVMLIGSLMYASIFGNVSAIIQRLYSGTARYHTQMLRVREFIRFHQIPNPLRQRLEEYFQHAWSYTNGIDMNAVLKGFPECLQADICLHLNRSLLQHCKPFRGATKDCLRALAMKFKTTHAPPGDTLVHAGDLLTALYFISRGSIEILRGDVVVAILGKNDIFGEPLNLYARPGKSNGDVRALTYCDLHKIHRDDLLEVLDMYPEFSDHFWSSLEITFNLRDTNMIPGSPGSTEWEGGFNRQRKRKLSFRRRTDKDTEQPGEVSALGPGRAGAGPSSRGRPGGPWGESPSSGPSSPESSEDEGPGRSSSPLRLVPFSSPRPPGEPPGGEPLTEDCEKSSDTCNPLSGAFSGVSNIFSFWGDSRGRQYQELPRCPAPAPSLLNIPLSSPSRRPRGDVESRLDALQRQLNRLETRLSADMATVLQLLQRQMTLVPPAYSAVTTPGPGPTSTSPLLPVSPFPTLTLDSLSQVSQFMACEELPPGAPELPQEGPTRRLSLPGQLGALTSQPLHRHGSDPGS

[17] = Table 2, FDA / medical literature

Sequence of CYP2D6 (P10635 whole entry): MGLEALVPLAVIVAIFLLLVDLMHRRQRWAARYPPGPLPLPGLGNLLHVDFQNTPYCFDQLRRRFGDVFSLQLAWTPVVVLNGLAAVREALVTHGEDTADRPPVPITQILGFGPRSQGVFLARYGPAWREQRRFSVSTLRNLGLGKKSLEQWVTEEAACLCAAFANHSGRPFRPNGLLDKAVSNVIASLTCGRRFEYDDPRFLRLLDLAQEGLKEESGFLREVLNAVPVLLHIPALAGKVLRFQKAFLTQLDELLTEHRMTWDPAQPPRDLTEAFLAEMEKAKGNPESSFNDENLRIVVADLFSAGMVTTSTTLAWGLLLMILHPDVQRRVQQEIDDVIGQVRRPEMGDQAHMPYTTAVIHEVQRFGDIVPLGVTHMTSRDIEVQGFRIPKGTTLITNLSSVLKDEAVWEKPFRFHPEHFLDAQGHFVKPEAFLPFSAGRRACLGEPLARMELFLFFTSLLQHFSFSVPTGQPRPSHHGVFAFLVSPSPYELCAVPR
Sequence of CYP2C9 (P11712 whole entry): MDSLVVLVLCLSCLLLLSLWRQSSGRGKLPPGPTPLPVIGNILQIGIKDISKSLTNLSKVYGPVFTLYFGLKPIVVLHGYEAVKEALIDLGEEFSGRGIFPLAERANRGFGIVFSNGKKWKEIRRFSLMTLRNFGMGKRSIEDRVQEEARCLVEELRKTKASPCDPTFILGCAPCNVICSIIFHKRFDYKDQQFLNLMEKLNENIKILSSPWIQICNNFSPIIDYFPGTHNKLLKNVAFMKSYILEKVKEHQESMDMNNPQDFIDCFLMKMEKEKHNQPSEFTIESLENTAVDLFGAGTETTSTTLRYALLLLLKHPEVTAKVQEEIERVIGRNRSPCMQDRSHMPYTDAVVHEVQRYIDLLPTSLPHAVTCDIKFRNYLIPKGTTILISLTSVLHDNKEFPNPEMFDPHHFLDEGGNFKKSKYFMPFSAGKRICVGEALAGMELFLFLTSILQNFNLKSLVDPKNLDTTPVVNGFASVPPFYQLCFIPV
Sequence of CYP2C19 (P33261 whole entry, the tested form may be a part): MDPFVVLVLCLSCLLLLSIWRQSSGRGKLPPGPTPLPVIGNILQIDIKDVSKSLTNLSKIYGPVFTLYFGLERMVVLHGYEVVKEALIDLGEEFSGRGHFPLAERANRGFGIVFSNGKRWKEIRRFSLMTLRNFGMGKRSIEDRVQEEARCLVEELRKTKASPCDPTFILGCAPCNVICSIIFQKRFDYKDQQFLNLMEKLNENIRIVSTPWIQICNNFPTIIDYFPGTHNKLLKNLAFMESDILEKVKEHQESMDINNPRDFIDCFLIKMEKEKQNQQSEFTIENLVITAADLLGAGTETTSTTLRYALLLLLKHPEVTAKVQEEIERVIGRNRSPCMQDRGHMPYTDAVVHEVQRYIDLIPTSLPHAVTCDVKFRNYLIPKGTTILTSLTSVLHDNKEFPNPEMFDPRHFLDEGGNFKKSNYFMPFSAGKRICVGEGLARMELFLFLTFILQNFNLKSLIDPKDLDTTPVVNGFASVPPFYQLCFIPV
Sequence of L-type ICa (P15381 whole entry, other chains not shown): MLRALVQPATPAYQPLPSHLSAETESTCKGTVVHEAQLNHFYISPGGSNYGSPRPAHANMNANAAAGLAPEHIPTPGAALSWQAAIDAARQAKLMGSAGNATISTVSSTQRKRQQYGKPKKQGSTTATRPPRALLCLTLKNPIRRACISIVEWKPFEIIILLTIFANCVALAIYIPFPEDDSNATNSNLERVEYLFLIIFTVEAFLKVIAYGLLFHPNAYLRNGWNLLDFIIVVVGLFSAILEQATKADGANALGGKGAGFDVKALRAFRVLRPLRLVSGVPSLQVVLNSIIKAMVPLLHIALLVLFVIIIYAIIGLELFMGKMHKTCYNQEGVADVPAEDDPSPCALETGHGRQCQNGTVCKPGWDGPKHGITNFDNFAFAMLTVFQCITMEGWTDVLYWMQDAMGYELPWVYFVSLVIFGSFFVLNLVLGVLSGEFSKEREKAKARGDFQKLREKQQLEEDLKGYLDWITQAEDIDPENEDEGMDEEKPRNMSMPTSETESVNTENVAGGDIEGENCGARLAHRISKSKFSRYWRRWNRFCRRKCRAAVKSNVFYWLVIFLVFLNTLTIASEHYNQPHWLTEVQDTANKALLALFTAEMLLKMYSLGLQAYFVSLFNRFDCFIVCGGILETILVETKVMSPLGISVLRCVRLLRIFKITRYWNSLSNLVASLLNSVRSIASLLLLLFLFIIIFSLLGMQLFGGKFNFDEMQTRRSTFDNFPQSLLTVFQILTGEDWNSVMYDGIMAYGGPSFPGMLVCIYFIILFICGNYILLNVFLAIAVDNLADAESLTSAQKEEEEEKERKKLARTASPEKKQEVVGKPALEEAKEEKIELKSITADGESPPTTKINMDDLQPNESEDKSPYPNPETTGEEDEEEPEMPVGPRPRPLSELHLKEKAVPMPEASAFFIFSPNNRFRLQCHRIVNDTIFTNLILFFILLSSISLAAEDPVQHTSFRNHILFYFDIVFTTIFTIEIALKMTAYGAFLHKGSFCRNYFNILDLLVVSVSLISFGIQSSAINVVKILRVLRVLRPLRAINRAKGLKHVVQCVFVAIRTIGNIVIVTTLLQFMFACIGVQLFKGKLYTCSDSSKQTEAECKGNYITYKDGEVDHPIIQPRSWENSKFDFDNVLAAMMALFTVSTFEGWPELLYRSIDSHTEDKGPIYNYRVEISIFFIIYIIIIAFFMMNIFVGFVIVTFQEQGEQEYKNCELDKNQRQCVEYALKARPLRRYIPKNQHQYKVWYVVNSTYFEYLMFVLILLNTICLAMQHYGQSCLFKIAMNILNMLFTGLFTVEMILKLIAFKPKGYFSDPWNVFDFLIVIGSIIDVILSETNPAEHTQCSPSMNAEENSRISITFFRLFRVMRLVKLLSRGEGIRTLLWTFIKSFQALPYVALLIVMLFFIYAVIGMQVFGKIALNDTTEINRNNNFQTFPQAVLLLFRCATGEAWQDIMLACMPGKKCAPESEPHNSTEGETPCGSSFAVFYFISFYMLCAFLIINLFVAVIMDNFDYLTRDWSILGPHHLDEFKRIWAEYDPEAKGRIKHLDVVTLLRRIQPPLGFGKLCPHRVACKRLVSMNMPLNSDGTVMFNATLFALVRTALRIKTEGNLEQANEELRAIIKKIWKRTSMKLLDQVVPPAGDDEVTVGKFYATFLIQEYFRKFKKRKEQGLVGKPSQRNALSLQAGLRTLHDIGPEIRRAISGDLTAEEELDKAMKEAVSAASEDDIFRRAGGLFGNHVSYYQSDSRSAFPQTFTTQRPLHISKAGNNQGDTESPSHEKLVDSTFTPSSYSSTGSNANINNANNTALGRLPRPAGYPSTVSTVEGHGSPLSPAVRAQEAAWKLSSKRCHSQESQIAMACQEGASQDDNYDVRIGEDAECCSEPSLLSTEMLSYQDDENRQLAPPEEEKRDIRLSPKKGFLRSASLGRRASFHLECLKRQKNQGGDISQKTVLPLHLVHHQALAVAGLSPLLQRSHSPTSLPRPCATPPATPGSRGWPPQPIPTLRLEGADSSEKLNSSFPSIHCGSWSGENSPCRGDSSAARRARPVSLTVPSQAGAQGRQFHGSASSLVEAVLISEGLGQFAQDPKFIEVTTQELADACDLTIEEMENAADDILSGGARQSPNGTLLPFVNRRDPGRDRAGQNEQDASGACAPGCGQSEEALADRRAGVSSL
Sequence of L-type ICa (P13806 27-1106 partner, other chains not shown): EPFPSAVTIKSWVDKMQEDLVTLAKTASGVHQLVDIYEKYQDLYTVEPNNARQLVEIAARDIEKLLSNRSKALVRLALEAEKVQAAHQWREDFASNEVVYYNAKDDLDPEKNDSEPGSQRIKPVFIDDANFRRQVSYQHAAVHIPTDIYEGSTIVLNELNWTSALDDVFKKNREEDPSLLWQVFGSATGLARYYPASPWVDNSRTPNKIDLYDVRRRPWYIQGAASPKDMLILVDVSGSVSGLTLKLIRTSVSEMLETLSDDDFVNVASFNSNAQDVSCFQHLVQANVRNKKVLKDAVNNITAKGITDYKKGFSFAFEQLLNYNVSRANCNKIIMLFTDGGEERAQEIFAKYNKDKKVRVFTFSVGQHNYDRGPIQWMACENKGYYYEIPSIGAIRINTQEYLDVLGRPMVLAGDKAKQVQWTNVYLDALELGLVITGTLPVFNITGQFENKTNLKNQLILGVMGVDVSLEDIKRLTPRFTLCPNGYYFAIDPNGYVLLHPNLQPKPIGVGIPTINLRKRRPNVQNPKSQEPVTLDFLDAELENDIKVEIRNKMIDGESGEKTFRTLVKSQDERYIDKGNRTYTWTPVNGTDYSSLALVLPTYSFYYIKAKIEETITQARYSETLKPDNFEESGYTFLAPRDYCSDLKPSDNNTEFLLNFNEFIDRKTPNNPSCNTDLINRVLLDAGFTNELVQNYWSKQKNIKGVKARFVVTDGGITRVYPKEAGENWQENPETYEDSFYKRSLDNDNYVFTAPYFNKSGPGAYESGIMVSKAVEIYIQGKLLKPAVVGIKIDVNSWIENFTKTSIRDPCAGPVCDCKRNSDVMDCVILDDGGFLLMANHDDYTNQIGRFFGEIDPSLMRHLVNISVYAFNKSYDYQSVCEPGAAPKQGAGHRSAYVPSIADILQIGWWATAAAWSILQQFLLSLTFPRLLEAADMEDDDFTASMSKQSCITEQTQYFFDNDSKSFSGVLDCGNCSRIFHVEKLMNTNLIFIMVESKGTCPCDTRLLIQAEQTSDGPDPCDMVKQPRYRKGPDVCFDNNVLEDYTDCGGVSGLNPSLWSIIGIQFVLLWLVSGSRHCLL

## CCS(=O)(=O)N(C)[C@H]1c2cc(C#N)ccc2OC(C)(C)[C@@H]1O (racemic) [chromanol 293B]
[1]; 293B alone
  Maximum inhibition of beating activity, drug alone: 50%
[1]; dose-response curve
  Effect on spontaneous beating rate: dose-dependent decrease in beating rate
[1]; highest drug concentration tested, relative to control
  Reduction in beating rate: about 50%
[2]; Busch et al. 1996
  Concentrations up to which IKs is selectively blocked: 10 to 30 µM
[2]; guinea pig ventricular myocytes (Busch et al. 1996)
  Concentration required to achieve complete blockade of IKs: 100 µM

## CN(C)CCC=C1c2ccccc2CCc2ccccc21 [Amitriptyline]
[3]; [17]
  TdP: Yes
[3]; Table 3
  TdP: Yes
[4]
  Interactions: cytochrome P-450 isoform 2C9, substrate or inhibitor: Substrate
[5]
  Interactions: cytochrome P-450 isoform 2D6, substrate or inhibitor: Substrate
[6]; Table 2, drug labeling
  QT: Yes
[6]; Table 3
  QT: Yes
[7]
  Interactions: cytochrome P-450 isoform 1A2, substrate or inhibitor: Substrate
[8]
  Interactions: cytochrome P-450 isoform 2C19, substrate or inhibitor: Substrate

## CN(C)CCCN1c2ccccc2CCc2ccc(Cl)cc21 [Clomipramine]
[7]
  Interactions: cytochrome P-450 isoform 1A2, substrate or inhibitor: Substrate
[8]
  Interactions: cytochrome P-450 isoform 2C19, substrate or inhibitor: Substrate

## Cc1cccc(CCN2CCC(C(=O)c3ccc(NS(C)(=O)=O)cc3)CC2)n1 [E-4031]
[9]
  Effect on transient outward current (Ito): no effect; also recorded: without affecting
[10]; at −40 mV
  Effect on IK1 outward (holding) current: without affecting; also recorded: no effect
[10]; recorded at −120 mV
  Effect on IK1 inward current: little effect
[1]; 5–10 mnM E-4031 alone
  Maximum inhibition of beating activity, drug alone: 50%

## NC(=O)OCC(COC(N)=O)c1ccccc1 [Felbamate]
[3]; [17]
  TdP: Yes
[3]; Table 3
  TdP: Yes
[6]; Table 2, drug labeling
  QT: Yes?
[6]; Table 3
  QT: Yes
[8]
  Interactions: cytochrome P-450 isoform 2C19, substrate or inhibitor: Inhibitor

## OC(Cn1cncn1)(Cn1cncn1)c1ccc(F)cc1F [Fluconazole]
[4]
  Interactions: cytochrome P-450 isoform 2C9, substrate or inhibitor: Inhibitor
[11]
  Interactions: cytochrome P-450 isoform 3A, substrate or inhibitor: Inbibilor

## CNCCC(Oc1ccc(C(F)(F)F)cc1)c1ccccc1 (stereo not shown) [Fluoxetine]
[4]
  Interactions: cytochrome P-450 isoform 2C9, substrate or inhibitor: Substrate
[6]; Table 2, drug labeling
  QT: Yes
[6]; Table 3
  QT: Yes
[8]
  Interactions: cytochrome P-450 isoform 2C19, substrate or inhibitor: Inhibitor
[11]
  Interactions: cytochrome P-450 isoform 3A, substrate or inhibitor: Inhibitor

## O=C(CCCN1CCC(O)(c2ccc(Cl)cc2)CC1)c1ccc(F)cc1 [Haloperidol]
[5]; CYP2D6 inhibitor
  Interactions: cytochrome P-450 isoform 2D6, substrate or inhibitor: Inhibitor
[5]; CYP2D6 substrate
  Interactions: cytochrome P-450 isoform 2D6, substrate or inhibitor: Substrate
[7]
  Interactions: cytochrome P-450 isoform 1A2, substrate or inhibitor: Substrate
[11]
  Interactions: cytochrome P-450 isoform 3A, substrate or inhibitor: Substrate

## CCCCCCCN(CC)CCCC(O)c1ccc(NS(C)(=O)=O)cc1 (stereo not shown) [Ibutilide]
[12]; 0.003 mg/kg intravenous single dose
  Duration of QTc prolonging effect: almost dissipated by the end of two hours
[12]; men versus women by menstrual phase, p<0.05
  Mean QTc prolongation over time (AUC, 60 minutes after infusion): significantly smaller in men than in women; also recorded: significantly lower for women during the luteal phase and for men
[12]; men, 0.003 mg/kg intravenous single dose
  Maximal change in QTc interval after infusion: 54 ± 28 ms
[12]; women, luteal phase, 0.003 mg/kg intravenous single dose
  Maximal change in QTc interval after infusion: 53 ± 14 ms
[12]; women, menstrual phase, 0.003 mg/kg intravenous single dose
  Maximal change in QTc interval after infusion: 63 ± 13 ms
[12]; women, ovulation phase, 0.003 mg/kg intravenous single dose
  Maximal change in QTc interval after infusion: 59 ± 17 ms
[3]; [17]
  TdP: Yes
[6]; Table 2, drug labeling
  QT: Yes

## CC(=O)N1CCN(c2ccc(OCC3COC(Cn4ccnc4)(c4ccc(Cl)cc4Cl)O3)cc2)CC1 (stereo not shown) [Ketoconazole]
[8]
  Interactions: cytochrome P-450 isoform 2C19, substrate or inhibitor: Inhibitor
[11]
  Interactions: cytochrome P-450 isoform 3A, substrate or inhibitor: Inhibitor

## C/C=C/C[C@@H](C)C(=O)[C@H]1C(=O)N[C@@H](C(C)C)C(=O)N(C)CC(=O)N(C)[C@@H](CC(C)C)C(=O)N[C@@H](C(C)C)C(=O)N(C)[C@@H](CC(C)C)C(=O)N[C@@H](C)C(=O)N[C@H](C)C(=O)N(C)[C@@H](CC(C)C)C(=O)N(C)[C@@H](CC(C)C)C(=O)N(C)[C@@H](C(C)C)C(=O)N1C [PSC-833]
[13]
  Effect on P-gp: potently and specifically inhibits

## CC/C(=C(\c1ccccc1)c1ccc(OCCN(C)C)cc1)c1ccccc1 [Tamoxifen]
[14]
  Inhibition of ICa: almost complete inhibition; also recorded: marked inhibition
[15]
  APD measured at 90% repolarization (APD90) after superfusion: 332 ± 19 ms

## CN(CCOc1ccc(NS(C)(=O)=O)cc1)CCc1ccc(NS(C)(=O)=O)cc1 [dofetilide]
[16]
  Effect on IKr tail current: abolished
